According to paper PMC4836387 (ACS Chemical Biology, 2016):

Columns and labels:
[1] = tested on: lentiviral vector carrying WT IN; test: single-round HIV-1 infectivity assay, WT IN; format: cell-based; conditions: Human immunodeficiency virus 1, read-out: EC50 (WT IN)
[2] = tested on: HIV-1 vector carrying IN mutant Y143R; test: single-round HIV-1 infectivity assay, Y143R IN; format: cell-based; conditions: for EC50: Human immunodeficiency virus 1, read-out: EC50 Y143R; for Fold-change (FC) in EC50 relative to WT, Y143R: in parentheses
[3] = tested on: HIV-1 vector carrying IN mutant N155H; test: single-round HIV-1 infectivity assay, N155H IN; format: cell-based; conditions: for EC50: Human immunodeficiency virus 1, read-out: EC50 N155H; for Fold-change (FC) in EC50 relative to WT, N155H: in parentheses
[4] = tested on: HIV-1 vector carrying IN mutant G140S/Q148H; test: single-round HIV-1 infectivity assay, G140S/Q148H IN; format: cell-based; conditions: for Fold-change (FC) in EC50 relative to WT, G140S/Q148H: in parentheses
[5] = tested on: HIV-1 vector carrying IN mutant G118R; test: single-round HIV-1 infectivity assay, G118R IN; format: cell-based; conditions: for EC50: Human immunodeficiency virus 1, read-out: EC50 G118R; for Fold-change (FC) in EC50 relative to WT, G118R: in parentheses
[6] = tested on: HIV-1 vector carrying IN mutant R263K; test: single-round HIV-1 infectivity assay, R263K IN; format: cell-based; conditions: for EC50: Human immunodeficiency virus 1, read-out: EC50 R263K; for Fold-change (FC) in EC50 relative to WT, R263K: in parentheses
[7] = tested on: HIV-1 vector carrying IN mutant T66I; test: single-round HIV-1 infectivity assay, T66I IN; format: cell-based; conditions: for EC50: Human immunodeficiency virus 1, read-out: EC50 T66I; for Fold-change (FC) in EC50 relative to WT, T66I: in parentheses
[8] = tested on: HIV-1 vector carrying IN mutant E92Q; test: single-round HIV-1 infectivity assay, E92Q IN; format: cell-based; conditions: for EC50: Human immunodeficiency virus 1, read-out: EC50 E92Q; for Fold-change (FC) in EC50 relative to WT, E92Q: in parentheses
[9] = tested on: HIV-1 vector carrying IN mutant H51Y; test: single-round HIV-1 infectivity assay, H51Y IN; format: cell-based; conditions: for EC50: Human immunodeficiency virus 1, read-out: EC50 H51Y; for Fold-change (FC) in EC50 relative to WT, H51Y: in parentheses
[10] = tested on: HIV-1 vector carrying IN mutant H51Y/R263K; test: single-round HIV-1 infectivity assay, H51Y/R263K IN; format: cell-based; conditions: for EC50: Human immunodeficiency virus 1, read-out: EC50 H51Y/R263K; for Fold-change (FC) in EC50 relative to WT, H51Y/R263K: in parentheses
in vitro = conditions: human
HIV-1 IN = HIV-1 IN (Human immunodeficiency virus type 1 group M subtype B, UniProt P12497); test: in vitro IN assay, strand transfer; format: biochemical; conditions: in vitro ST inhibitory IC50, text values

Compound: COc1cc2c(cc1Cc1cccc(Cl)c1F)c(=O)c(C(=O)O)cn2[C@H](CO)C(C)C [compound 2, elvitegravir, reference compound]
- EC50 [1]: 6.4 ± 0.8 nM
- EC50 [2]: 7.9 ± 2.3 nM
- Fold-change (FC) in EC50 relative to WT, Y143R [2]: 1.2
- EC50 [3]: 90 ± 18 nM
- Fold-change (FC) in EC50 relative to WT, N155H [3]: 14
- Fold-change (FC) in EC50 relative to WT, G140S/Q148H [4]: 891
- EC50 [5]: 21 ± 10 nM
- Fold-change (FC) in EC50 relative to WT, G118R [5]: 3.3
- EC50 [6]: 10 ± 6 nM
- Fold-change (FC) in EC50 relative to WT, R263K [6]: 1.6
- EC50 [7]: 66 ± 1 nM
- Fold-change (FC) in EC50 relative to WT, T66I [7]: 10
- EC50 [8]: 154 ± 34 nM
- Fold-change (FC) in EC50 relative to WT, E92Q [8]: 24
- EC50 [9]: 4.5 ± 2.1 nM
- Fold-change (FC) in EC50 relative to WT, H51Y [9]: 0.7
- EC50 [10]: 53 ± 18 nM
- Fold-change (FC) in EC50 relative to WT, H51Y/R263K [10]: 8
- CC50 (in vitro): > 250000 nM

Compound: Nc1c(C(=O)NCc2ccc(F)cc2F)c(=O)n(O)c2ncc(CCCO)cc12 [4b]
- IC50 (HIV-1 IN): 11 nM
- EC50 [1]: 3.1 ± 2 nM
- EC50 [2]: 2.8 ± 0.9 nM
- Fold-change (FC) in EC50 relative to WT, Y143R [2]: 0.90
- EC50 [3]: 8.5 ± 3.1 nM
- Fold-change (FC) in EC50 relative to WT, N155H [3]: 2.7
- Fold-change (FC) in EC50 relative to WT, G140S/Q148H [4]: 4.3
- EC50 [5]: 10 ± 1.6 nM
- Fold-change (FC) in EC50 relative to WT, G118R [5]: 3.2
- EC50 [6]: 2.5 ± 0.8 nM
- Fold-change (FC) in EC50 relative to WT, R263K [6]: 0.81
- EC50 [7]: 1.1 ± 0.1 nM
- Fold-change (FC) in EC50 relative to WT, T66I [7]: 0.35
- EC50 [8]: 4.8 ± 2 nM
- Fold-change (FC) in EC50 relative to WT, E92Q [8]: 1.5
- EC50 [9]: 2.6 ± 0.5 nM
- Fold-change (FC) in EC50 relative to WT, H51Y [9]: 0.84
- EC50 [10]: 15 ± 2 nM
- Fold-change (FC) in EC50 relative to WT, H51Y/R263K [10]: 4.8
- CC50 (in vitro): > 250000 nM

Compound: C[C@@H]1CCO[C@H]2Cn3cc(C(=O)NCc4ccc(F)cc4F)c(=O)c(O)c3C(=O)N12 [compound 3, dolutegravir, reference compound]
- EC50 [7]: 0.9 ± 0.8 nM
- EC50 [8]: 2.3 ± 0.4 nM
- EC50 [9]: 3.2 ± 0.2 nM
- EC50 [10]: 16 ± 2 nM

Compound: Nc1c(C(=O)NCc2ccc(F)cc2F)c(=O)n(O)c2ncc(CCCCCCCCO)cc12 [4e]
- IC50 (HIV-1 IN): 5 nM
- EC50 [1]: 3.7 ± 0.4 nM
- EC50 [2]: 3.2 ± 0.8 nM
- Fold-change (FC) in EC50 relative to WT, Y143R [2]: 0.86
- EC50 [3]: 6.5 ± 2.7 nM
- Fold-change (FC) in EC50 relative to WT, N155H [3]: 1.8
- Fold-change (FC) in EC50 relative to WT, G140S/Q148H [4]: 2.1
- EC50 [5]: 11 ± 1 nM
- Fold-change (FC) in EC50 relative to WT, G118R [5]: 3.0
- EC50 [6]: 3.8 ± 1.1 nM
- Fold-change (FC) in EC50 relative to WT, R263K [6]: 1.0
- EC50 [7]: 1.7 ± 0.5 nM
- Fold-change (FC) in EC50 relative to WT, T66I [7]: 0.46
- EC50 [8]: 2.6 ± 0.2 nM
- Fold-change (FC) in EC50 relative to WT, E92Q [8]: 0.70
- EC50 [9]: 4.8 ± 1.1 nM
- Fold-change (FC) in EC50 relative to WT, H51Y [9]: 1.3
- EC50 [10]: 22 ± 8 nM
- Fold-change (FC) in EC50 relative to WT, H51Y/R263K [10]: 5.9
- CC50 (in vitro): > 250000 nM

Compound: Nc1c(C(=O)NCc2ccc(F)cc2F)c(=O)n(O)c2ncc(CCCCCO)cc12 [4c]
- EC50 [1]: 1.3 ± 0.2 nM
- EC50 [2]: 3 ± 0.5 nM
- Fold-change (FC) in EC50 relative to WT, Y143R [2]: 2.3
- EC50 [3]: 2.4 ± 0.8 nM
- Fold-change (FC) in EC50 relative to WT, N155H [3]: 1.8
- Fold-change (FC) in EC50 relative to WT, G140S/Q148H [4]: 5.3
- EC50 ([4]; read-out: EC50 G140S/Q148H, viral vector carrying IN mutations G140S/Q148H): 6.9 ± 2.3 nM
- EC50 [5]: 5.3 ± 1.6 nM
- Fold-change (FC) in EC50 relative to WT, G118R [5]: 4.1
- EC50 [6]: 2.6 ± 0.1 nM
- Fold-change (FC) in EC50 relative to WT, R263K [6]: 2.0
- EC50 [7]: 0.93 ± 0.24 nM
- Fold-change (FC) in EC50 relative to WT, T66I [7]: 0.72
- EC50 [8]: 3.8 ± 2.3 nM
- EC50 [9]: 3.8 ± 0.6 nM
- Fold-change (FC) in EC50 relative to WT, H51Y [9]: 2.9
- EC50 [10]: 2.6 ± 1.4 nM
- Fold-change (FC) in EC50 relative to WT, H51Y/R263K [10]: 2.0
- CC50 (in vitro): > 250000 nM

Compound: Nc1c(C(=O)NCc2ccc(F)cc2F)c(=O)n(O)c2ncc(CCCCCCO)cc12 [4d]
- EC50 [1]: 2.3 ± 0.6 nM
- EC50 [2]: 2.1 ± 1.4 nM
- Fold-change (FC) in EC50 relative to WT, Y143R [2]: 0.91
- EC50 [3]: 2.7 ± 1 nM
- Fold-change (FC) in EC50 relative to WT, N155H [3]: 1.2
- Fold-change (FC) in EC50 relative to WT, G140S/Q148H [4]: 4.1
- EC50 [5]: 6.4 ± 2.5 nM
- Fold-change (FC) in EC50 relative to WT, G118R [5]: 2.8
- EC50 [6]: 8.4 ± 2.3 nM
- Fold-change (FC) in EC50 relative to WT, R263K [6]: 3.7
- EC50 [7]: 0.5 ± 0.35 nM
- Fold-change (FC) in EC50 relative to WT, T66I [7]: 0.22
- EC50 [8]: 0.74 ± 0.13 nM
- Fold-change (FC) in EC50 relative to WT, E92Q [8]: 0.32
- EC50 [9]: 1.6 ± 0.1 nM
- Fold-change (FC) in EC50 relative to WT, H51Y [9]: 0.70
- EC50 [10]: 5.2 ± 1.6 nM
- Fold-change (FC) in EC50 relative to WT, H51Y/R263K [10]: 2.3
- CC50 (in vitro): > 250000 nM

Compound: Nc1c(C(=O)NCc2ccc(F)cc2F)c(=O)n(O)c2ncc(CCS(=O)(=O)c3ccccc3)cc12 [4f]
- EC50 [1]: 2 ± 0.1 nM
- EC50 [2]: 0.6 ± 0.1 nM
- Fold-change (FC) in EC50 relative to WT, Y143R [2]: 0.3
- EC50 [3]: 2.1 ± 1.2 nM
- Fold-change (FC) in EC50 relative to WT, N155H [3]: 1
- Fold-change (FC) in EC50 relative to WT, G140S/Q148H [4]: 3
- EC50 [5]: 11.4 ± 3.5 nM
- Fold-change (FC) in EC50 relative to WT, G118R [5]: 6
- EC50 [6]: 5.3 ± 0.8 nM
- Fold-change (FC) in EC50 relative to WT, R263K [6]: 2
- EC50 [7]: 0.7 ± 0.1 nM
- Fold-change (FC) in EC50 relative to WT, T66I [7]: 0.3
- EC50 [8]: 1.2 ± 0.6 nM
- Fold-change (FC) in EC50 relative to WT, E92Q [8]: 0.6
- EC50 [9]: 0.8 ± 0.5 nM
- Fold-change (FC) in EC50 relative to WT, H51Y [9]: 0.4
- EC50 [10]: 5.3 ± 0.4 nM
- Fold-change (FC) in EC50 relative to WT, H51Y/R263K [10]: 2
- CC50 (in vitro): > 250000 nM

Compound: Cc1nnc(C(=O)NC(C)(C)c2nc(C(=O)NCc3ccc(F)cc3)c(O)c(=O)n2C)o1 [compound 1, raltegravir, reference compound]
- EC50 [7]: 2.8 ± 0.4 nM
- EC50 [8]: 30 ± 10 nM
- EC50 [9]: 3.4 ± 0.2 nM
- EC50 [10]: 6 ± 2.3 nM
